The text below walks through data of patent publication US20090233942A1, “Genetic markers associated with response to antidepressants” (priority 2008, published 2009).

The test system of data set [1] is c-fos. Particulars: rat; cited from earlier work.
A further data set deals with laminin, CAM-L1, pCREB. The following applies: chronic administration, unstressed rats; cited from earlier work.
A further data set has as its system 26S proteasome. Particulars: cited from earlier work.
For another data set, the system named is mice. The following applies: intracerebroventricular injection; cited from earlier work.
For the next data set, the system named is BCLXL expression. Particulars: rat depression model, chronic administration; cited from earlier work.
Data set [2] concerns c-fos. Particulars: unstressed rats; cited from earlier work.
In the next data set the target is CYP2C9 (Homo sapiens, UniProt P11712). Particulars: cited from earlier work.
Chain of CYP2C9 (P11712 whole entry): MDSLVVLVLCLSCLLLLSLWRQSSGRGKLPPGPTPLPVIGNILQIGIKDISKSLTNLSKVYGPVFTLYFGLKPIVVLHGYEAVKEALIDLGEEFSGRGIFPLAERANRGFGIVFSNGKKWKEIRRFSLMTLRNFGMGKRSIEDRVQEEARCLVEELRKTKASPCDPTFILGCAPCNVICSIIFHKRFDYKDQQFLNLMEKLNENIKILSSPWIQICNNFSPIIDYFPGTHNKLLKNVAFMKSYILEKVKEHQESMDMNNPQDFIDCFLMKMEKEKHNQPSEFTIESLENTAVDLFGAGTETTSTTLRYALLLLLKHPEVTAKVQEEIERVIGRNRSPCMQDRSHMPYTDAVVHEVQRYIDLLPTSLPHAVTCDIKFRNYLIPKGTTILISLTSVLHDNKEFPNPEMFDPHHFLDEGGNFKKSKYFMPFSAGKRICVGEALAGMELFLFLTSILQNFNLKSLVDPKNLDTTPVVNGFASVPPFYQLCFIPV
A further data set deals with GluR1, GluR2, and GluR3. Particulars: chronic (30 days) administration; mouse nucleus accumbens and dorsal striatum; cited from earlier work.
The subject of a further data set is PLC-β1 knockout mice. Particulars: cited from earlier work.
A further data set has as its system patients with MDD. In words: Five Phase II studies of vilazodone, eight weeks of treatment. Format: in vivo, human. Particulars: active comparator in three Phase II studies. An excerpt: As part of the vilazodone development program, five Phase II studies have been conducted, all in patients with MDD. These studies randomized 2,098 patients for eight weeks of treatment, 1196 of whom received vilazodone.

In the next data set the target is T1, CYP1A2 (Homo sapiens, UniProt P05177).
T1 sequence (P05177 1-516): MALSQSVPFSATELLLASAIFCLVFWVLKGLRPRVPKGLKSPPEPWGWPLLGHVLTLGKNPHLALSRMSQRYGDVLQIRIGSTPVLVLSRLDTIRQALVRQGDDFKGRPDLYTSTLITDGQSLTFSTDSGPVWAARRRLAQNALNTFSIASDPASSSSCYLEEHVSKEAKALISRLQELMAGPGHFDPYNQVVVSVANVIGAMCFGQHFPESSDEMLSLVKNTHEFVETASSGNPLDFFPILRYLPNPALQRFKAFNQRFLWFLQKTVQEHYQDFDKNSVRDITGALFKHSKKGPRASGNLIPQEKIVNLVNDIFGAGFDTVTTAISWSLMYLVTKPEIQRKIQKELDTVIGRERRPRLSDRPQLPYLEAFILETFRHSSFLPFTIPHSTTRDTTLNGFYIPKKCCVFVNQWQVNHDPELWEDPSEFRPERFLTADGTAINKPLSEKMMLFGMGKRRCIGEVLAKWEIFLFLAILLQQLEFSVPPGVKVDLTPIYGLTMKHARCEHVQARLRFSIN
Particulars: cited from earlier work.

A further data set concerns the target CYP2C19 (Homo sapiens, UniProt P33261). The following applies: cited from earlier work.
The target in the next data set is CYP3A4 (Homo sapiens, UniProt P08684). The following applies: cited from earlier work.
Chain of CYP3A4 (P08684 whole entry): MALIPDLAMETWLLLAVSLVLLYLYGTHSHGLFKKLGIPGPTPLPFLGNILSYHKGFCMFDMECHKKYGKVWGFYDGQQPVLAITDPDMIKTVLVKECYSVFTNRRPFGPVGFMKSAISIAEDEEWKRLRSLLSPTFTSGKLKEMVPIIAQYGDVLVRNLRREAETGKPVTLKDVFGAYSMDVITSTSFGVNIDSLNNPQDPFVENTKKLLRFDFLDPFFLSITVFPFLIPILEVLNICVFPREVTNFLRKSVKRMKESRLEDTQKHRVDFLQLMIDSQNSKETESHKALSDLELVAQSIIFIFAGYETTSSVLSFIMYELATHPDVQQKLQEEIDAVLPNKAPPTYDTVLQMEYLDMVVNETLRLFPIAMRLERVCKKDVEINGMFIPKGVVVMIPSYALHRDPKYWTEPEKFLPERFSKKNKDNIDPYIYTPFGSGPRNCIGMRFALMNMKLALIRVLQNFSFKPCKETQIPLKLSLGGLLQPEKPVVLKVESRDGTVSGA
In another data set the test system is GluR1. Particulars: cited from earlier work.
The next data set concerns MAPK1. The following applies: cultured rat astrocytes; cited from earlier work.

Chain of CYP2C19 (P33261 whole entry): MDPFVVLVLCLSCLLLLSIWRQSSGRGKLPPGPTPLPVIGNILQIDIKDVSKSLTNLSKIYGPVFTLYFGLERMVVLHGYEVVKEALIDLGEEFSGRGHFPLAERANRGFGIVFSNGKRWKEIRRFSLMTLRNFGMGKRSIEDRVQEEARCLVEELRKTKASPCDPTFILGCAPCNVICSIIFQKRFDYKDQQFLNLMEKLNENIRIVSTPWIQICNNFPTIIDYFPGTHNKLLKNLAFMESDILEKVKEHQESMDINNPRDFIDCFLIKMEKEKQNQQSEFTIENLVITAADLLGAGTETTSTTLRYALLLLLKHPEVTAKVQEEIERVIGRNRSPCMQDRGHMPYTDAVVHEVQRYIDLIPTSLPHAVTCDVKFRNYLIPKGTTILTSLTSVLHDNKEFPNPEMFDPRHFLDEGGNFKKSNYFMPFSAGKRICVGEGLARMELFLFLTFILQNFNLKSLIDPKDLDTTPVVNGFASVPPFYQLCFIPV

As for `CNCCCN1c2ccccc2CCc2ccccc21` [desipramine], the “level of c-fos in the PAG brain region” value in the data set with c-fos [1] is “decreased”. In the data set with laminin, CAM-L1, pCREB, the “laminin and CAM-L1 in hippocampus and frontal cortex” value is reported as “increased”; the pCREB result is listed as “increased pCREB in the frontal cortex only”.

`CN(C)CCCN1c2ccccc2CCc2ccc(Cl)cc21` [clomipramine]: the “level of c-fos in the PAG brain region” value in the data set with c-fos [1] is on record as “decreased”.

Consider `CCCCC[C@H](O)/C=C/[C@H]1C(=O)C=C[C@@H]1C/C=C\CCCC(=O)O` [prostaglandin J2], for which, in the data set on 26S proteasome, the “function of the 26S proteasome” value is “inhibited”.

Regarding neuropeptide Y [NPY], in the data set on mice, the antidepressant-like effect result is reported as “dose dependent antidepressant-like effect”.

Consider `CCOc1ccccc1OC(c1ccccc1)C1CNCCO1` (stereo not shown) [reboxetine], for which the “BCLXL expression in the CA1 and DG subfields” value with BCLXL expression is “increased”. Also, in the data set with c-fos [2], the “c-fos staining in the brain” value is listed as “decrease”.

With `CN[C@H]1CC[C@@H](c2ccc(Cl)c(Cl)c2)c2ccccc21` [Sertraline], the “inhibition of CYP2C9” value at CYP2C9 is “partially inhibit”.

In the case of `CNCCCC12CCC(c3ccccc31)c1ccccc12` [maprotiline], the “GluR1, GluR2, and GluR3” value in the data set on GluR1, GluR2, and GluR3 was “increased”.

For `O=C(CCCN1CCC(O)(c2ccc(Cl)cc2)CC1)c1ccc(F)cc1` [haloperidol], the schizophrenic-like behaviors result in the data set with PLC-β1 knockout mice is “rescued”.

`CNCCC(Oc1ccc(C(F)(F)F)cc1)c1ccccc1` (stereo not shown) [fluoxetine]: in the data set with patients with MDD, the “Hamilton Depression Scale (HAM-D) total score versus placebo” value was “did not show a statistically significant improvement”. For the same compound, the “inhibition of CYP1A2” value on CYP1A2 is listed as “inhibit”. Moreover, the “inhibition of CYP2C19” value at CYP2C19 is “inhibit”. For the same compound, the “inhibition of CYP3A4” value on CYP3A4 is “inhibit”. Further, the “c-fos staining in the brain” value in the data set with c-fos [2] was “decrease”. Also, the “phosphorylation of GluR1” value in the data set with GluR1 was “increase”. In the data set with MAPK1, the MAPK1 activation entry is “increased”.

On to `N[C@@H]1C[C@H]1c1ccccc1` (racemic) [tranylcypromine], for which the “BCLXL expression in the CA1 and DG subfields” value with BCLXL expression was “increased”.
